Source: PubChem BioAssay AID1259407 (Chemical Carcinogenesis Research Information System (CCRIS), 2018)
Calls of active or inactive are those of the source. No rule for the calls is given here.

Tested on: CCRIS mutagenicity, Ames/micronucleus/aberration tests
Assay: CCRIS mutagenicity studies
[1] = Test System: AMES SALMONELLA TYPHIMURIUM, Strain/Indicator: TA98, Metabolic Activation: NONE, Method: PREINCUBATION
[2] = Test System: AMES SALMONELLA TYPHIMURIUM, Strain/Indicator: TA100, Metabolic Activation: NONE, Method: PREINCUBATION

Which results are given for `C#CC`?
mutagenic call (End Point: IN VITRO CHROMOSOMAL ABERRATIONS, Test System: CHL CELLS, Metabolic Activation: RAT, LIVER, S-9, SODIUM PHENOBARBITAL AND 5,6-BENZOFLAVONE): inactive; negative; authors report equivocal results for structural changes at the highest; mutagenic call (Test System: AMES SALMONELLA TYPHIMURIUM, Strain/Indicator: TA98, Metabolic Activation: NONE, Method: GAS EXPOSURE): inactive; negative; mutagenic call (Test System: AMES SALMONELLA TYPHIMURIUM, Strain/Indicator: TA98, Metabolic Activation: RAT LIVER S-9, PHENOBARBITAL AND BETA-NAPHTHOFLAVONE (40%), Method: GAS EXPOSURE): inactive; negative; mutagenic call (Test System: AMES SALMONELLA TYPHIMURIUM, Strain/Indicator: TA98, Metabolic Activation: RAT, LIVER, S-9, PHENOBARBITAL AND 5,6-BENZOFLAVONE, Method: GAS EXPOSURE): inactive; negative; mutagenic call (Test System: AMES SALMONELLA TYPHIMURIUM, Strain/Indicator: TA100, Metabolic Activation: NONE, Method: GAS EXPOSURE): inactive; negative; mutagenic call (Test System: AMES SALMONELLA TYPHIMURIUM, Strain/Indicator: TA100, Metabolic Activation: RAT LIVER S-9, PHENOBARBITAL AND BETA-NAPHTHOFLAVONE (40%), Method: GAS EXPOSURE): inactive; negative; mutagenic call (Test System: AMES SALMONELLA TYPHIMURIUM, Strain/Indicator: TA100, Metabolic Activation: RAT, LIVER, S-9, PHENOBARBITAL AND 5,6-BENZOFLAVONE, Method: GAS EXPOSURE): inactive; negative; mutagenic call (Test System: AMES SALMONELLA TYPHIMURIUM, Strain/Indicator: TA1535, Metabolic Activation: NONE, Method: GAS EXPOSURE): inactive; negative; mutagenic call (Test System: AMES SALMONELLA TYPHIMURIUM, Strain/Indicator: TA1535, Metabolic Activation: RAT LIVER S-9, PHENOBARBITAL AND BETA-NAPHTHOFLAVONE (40%), Method: GAS EXPOSURE): inactive; negative; mutagenic call (Test System: AMES SALMONELLA TYPHIMURIUM, Strain/Indicator: TA1535, Metabolic Activation: RAT, LIVER, S-9, PHENOBARBITAL AND 5,6-BENZOFLAVONE, Method: GAS EXPOSURE): inactive; negative; mutagenic call (Test System: AMES SALMONELLA TYPHIMURIUM, Strain/Indicator: TA1537, Metabolic Activation: NONE, Method: GAS EXPOSURE): inactive; negative; mutagenic call (Test System: AMES SALMONELLA TYPHIMURIUM, Strain/Indicator: TA1537, Metabolic Activation: RAT LIVER S-9, PHENOBARBITAL AND BETA-NAPHTHOFLAVONE (40%), Method: GAS EXPOSURE): inactive; negative; mutagenic call (Test System: AMES SALMONELLA TYPHIMURIUM, Strain/Indicator: TA1537, Metabolic Activation: RAT, LIVER, S-9, PHENOBARBITAL AND 5,6-BENZOFLAVONE, Method: GAS EXPOSURE): inactive; negative; mutagenic call (Test System: E. COLI, Strain/Indicator: WP2 UVRA, Metabolic Activation: NONE, Method: GAS EXPOSURE): active; positive; mutagenic call (Test System: E. COLI, Strain/Indicator: WP2 UVRA, Metabolic Activation: RAT, LIVER, S-9, PHENOBARBITAL AND 5,6-BENZOFLAVONE, Method: GAS EXPOSURE): active; positive; mutagenic call (Test System: E.COLI, Strain/Indicator: WP2UVRA, Metabolic Activation: NONE, Method: GAS EXPOSURE): active; positive; mutagenic call (Test System: E.COLI, Strain/Indicator: WP2UVRA, Metabolic Activation: RAT LIVER S-9, PHENOBARBITAL AND BETA-NAPHTHOFLAVONE (40%), Method: GAS EXPOSURE): active; positive

How did the mutagenic call (Test System: AMES SALMONELLA TYPHIMURIUM, Strain/Indicator: TA97, Metabolic Activation: HAMSTER, LIVER, S-9, AROCLOR 1254 (10%), Method: PREINCUBATION) turn out when `N#CCC#N` was run?
Its mutagenic call is “inactive; negative”.

What about the mutagenic call (Test System: AMES SALMONELLA TYPHIMURIUM, Strain/Indicator: TA97, Metabolic Activation: HAMSTER, LIVER, S-9, AROCLOR 1254 (30%), Method: PREINCUBATION) of the same compound?
Its mutagenic call is “inactive; negative”.

What about the mutagenic call (Test System: AMES SALMONELLA TYPHIMURIUM, Strain/Indicator: TA97, Metabolic Activation: NONE, Method: PREINCUBATION) of the same compound?
The mutagenic call was “inactive; negative”.

What about the mutagenic call (Test System: AMES SALMONELLA TYPHIMURIUM, Strain/Indicator: TA97, Metabolic Activation: RAT, LIVER, S-9, AROCLOR 1254 (10%), Method: PREINCUBATION) of the same compound?
Its mutagenic call is “inactive; negative”.

And the mutagenic call (Test System: AMES SALMONELLA TYPHIMURIUM, Strain/Indicator: TA97, Metabolic Activation: RAT, LIVER, S-9, AROCLOR 1254 (30%), Method: PREINCUBATION)?
Its mutagenic call is “inactive; negative”.

And the mutagenic call (Test System: AMES SALMONELLA TYPHIMURIUM, Strain/Indicator: TA98, Metabolic Activation: HAMSTER, LIVER, S-9, AROCLOR 1254 (10%), Method: PREINCUBATION)?
The mutagenic call was “inactive; negative”.

What about the mutagenic call (Test System: AMES SALMONELLA TYPHIMURIUM, Strain/Indicator: TA98, Metabolic Activation: HAMSTER, LIVER, S-9, AROCLOR 1254 (30%), Method: PREINCUBATION) of the same compound?
The mutagenic call was “inactive; negative”.

What about the mutagenic call [1] of the same compound?
Its mutagenic call is “inactive; negative”.

What about the mutagenic call (Test System: AMES SALMONELLA TYPHIMURIUM, Strain/Indicator: TA98, Metabolic Activation: RAT, LIVER, S-9, AROCLOR 1254 (10%), Method: PREINCUBATION) of the same compound?
Its mutagenic call is “inactive; negative”.

And the mutagenic call (Test System: AMES SALMONELLA TYPHIMURIUM, Strain/Indicator: TA98, Metabolic Activation: RAT, LIVER, S-9, AROCLOR 1254 (30%), Method: PREINCUBATION)?
Its mutagenic call is “inactive; negative”.

What about the mutagenic call (Test System: AMES SALMONELLA TYPHIMURIUM, Strain/Indicator: TA100, Metabolic Activation: HAMSTER, LIVER, S-9, AROCLOR 1254 (10%), Method: PREINCUBATION) of the same compound?
The mutagenic call was “inactive; negative”.

And the mutagenic call (Test System: AMES SALMONELLA TYPHIMURIUM, Strain/Indicator: TA100, Metabolic Activation: HAMSTER, LIVER, S-9, AROCLOR 1254 (30%), Method: PREINCUBATION)?
The mutagenic call was “inactive; negative”.

And the mutagenic call [2]?
Its mutagenic call is “inactive; negative”.

What about the mutagenic call (Test System: AMES SALMONELLA TYPHIMURIUM, Strain/Indicator: TA100, Metabolic Activation: RAT, LIVER, S-9, AROCLOR 1254 (10 OR 30%), Method: PREINCUBATION) of the same compound?
Its mutagenic call is “inactive; negative”.

What about the mutagenic call (Test System: AMES SALMONELLA TYPHIMURIUM, Strain/Indicator: TA1535, Metabolic Activation: HAMSTER, LIVER, S-9, AROCLOR 1254 (10%), Method: PREINCUBATION) of the same compound?
The mutagenic call was “inactive; negative”.

What about the mutagenic call (Test System: AMES SALMONELLA TYPHIMURIUM, Strain/Indicator: TA1535, Metabolic Activation: HAMSTER, LIVER, S-9, AROCLOR 1254 (30%), Method: PREINCUBATION) of the same compound?
The mutagenic call was “inactive; negative”.

What about the mutagenic call (Test System: AMES SALMONELLA TYPHIMURIUM, Strain/Indicator: TA1535, Metabolic Activation: NONE, Method: PREINCUBATION) of the same compound?
Its mutagenic call is “inactive; negative”.

What about the mutagenic call (Test System: AMES SALMONELLA TYPHIMURIUM, Strain/Indicator: TA1535, Metabolic Activation: RAT, LIVER, S-9, AROCLOR 1254 (10 OR 30%), Method: PREINCUBATION) of the same compound?
The mutagenic call was “inactive; negative”.

What does the source list for `CC(=O)Nc1cccc2cccnc12`?
mutagenic call [1]: inactive; negative; mutagenic call (Test System: AMES SALMONELLA TYPHIMURIUM, Strain/Indicator: TA98, Metabolic Activation: RAT, LIVER, S-9, KANECHLOR 500, Method: PREINCUBATION): inactive; negative; mutagenic call [2]: inactive; negative; mutagenic call (Test System: AMES SALMONELLA TYPHIMURIUM, Strain/Indicator: TA100, Metabolic Activation: RAT, LIVER, S-9, KANECHLOR 500, Method: PREINCUBATION): active; positive; mutagenic call (Test System: AMES SALMONELLA TYPHIMURIUM, Strain/Indicator: TA100, Metabolic Activation: RAT, LIVER, S-9, PHENOBARBITAL AND 5,6-BENZOFLAVONE, Method: PREINCUBATION): active; positive; mutagenic call (Test System: AMES SALMONELLA TYPHIMURIUM, Strain/Indicator: TA100, Metabolic Activation: S-9, Method: PREINCUBATION): active; positive
